Data: ChEMBL document CHEMBL6092154, “Design, synthesis, and evaluation of a novel TRAIL-activated HDAC6 inhibitor for the treatment of pulmonary fibrosis” (Bioorg Med Chem, 2024)
Active and inactive are the calls of the source. The rule behind the calls is not given here.

Experiments:
Mus musculus [1] = test: Anti-pulmonary fibrosis activity in bleomycin-induced idiopathic pulmonary fibrosis C57BL/6J mouse model assessed as decrease in collagen I protein expression in lung at 25 mg/kg, ig administered daily via gavage measured after 14 days by western blot analysis; type: functional, organism-based; conditions: time 14.0 day
[2] = target: T1, Protein deacetylase HDAC6 (Mus musculus) (UniProt Q9Z2V5); test: In vivo inhibition of HDAC6 in bleomycin-induced idiopathic pulmonary fibrosis C57BL/6J mouse model assessed as increase in acetylated alpha-tubulin level in lung at 50 mg/kg, ig administered via gavage and measured on day 14 by western blot analysis; type: functional, organism-based; conditions: time 14.0 day
T1 sequence (whole entry): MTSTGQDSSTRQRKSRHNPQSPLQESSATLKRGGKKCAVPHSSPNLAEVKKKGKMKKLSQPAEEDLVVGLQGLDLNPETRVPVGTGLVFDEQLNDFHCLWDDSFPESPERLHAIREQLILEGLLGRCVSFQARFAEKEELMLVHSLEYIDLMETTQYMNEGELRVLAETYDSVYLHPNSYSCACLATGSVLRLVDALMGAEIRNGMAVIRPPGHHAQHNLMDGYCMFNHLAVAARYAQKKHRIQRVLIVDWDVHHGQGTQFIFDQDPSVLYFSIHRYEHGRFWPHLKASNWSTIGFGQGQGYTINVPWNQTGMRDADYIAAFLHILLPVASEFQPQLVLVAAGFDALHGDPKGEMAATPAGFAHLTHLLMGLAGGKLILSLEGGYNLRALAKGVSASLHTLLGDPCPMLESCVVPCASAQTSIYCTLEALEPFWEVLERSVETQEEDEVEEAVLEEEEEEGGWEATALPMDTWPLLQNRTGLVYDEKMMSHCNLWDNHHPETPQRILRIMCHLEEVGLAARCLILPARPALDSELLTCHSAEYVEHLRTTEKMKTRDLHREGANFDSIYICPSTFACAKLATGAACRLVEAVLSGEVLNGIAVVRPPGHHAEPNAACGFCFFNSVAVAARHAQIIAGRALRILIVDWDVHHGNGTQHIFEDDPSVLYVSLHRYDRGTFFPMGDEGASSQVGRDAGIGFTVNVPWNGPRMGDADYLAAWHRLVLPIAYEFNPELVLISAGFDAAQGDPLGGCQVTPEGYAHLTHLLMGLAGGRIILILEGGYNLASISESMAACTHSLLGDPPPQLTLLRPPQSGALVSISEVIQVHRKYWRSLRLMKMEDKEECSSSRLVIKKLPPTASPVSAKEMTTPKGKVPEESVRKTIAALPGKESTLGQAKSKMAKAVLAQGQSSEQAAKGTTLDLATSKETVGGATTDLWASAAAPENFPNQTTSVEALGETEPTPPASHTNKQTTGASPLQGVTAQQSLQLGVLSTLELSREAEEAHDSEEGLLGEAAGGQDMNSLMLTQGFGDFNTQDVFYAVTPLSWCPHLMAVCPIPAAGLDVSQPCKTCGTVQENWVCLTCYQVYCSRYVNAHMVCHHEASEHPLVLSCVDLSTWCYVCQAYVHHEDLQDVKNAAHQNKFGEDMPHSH

Histone deacetylase 2 = Histone deacetylase 2 (Homo sapiens, UniProt Q92769); test: Inhibition of HDAC2 (unknown origin) incubated for 30 mins by fluorometric analysis
[3] = target: T2, Protein deacetylase HDAC6 (Homo sapiens) (UniProt Q9UBN7); test: Inhibition of HDAC6 (unknown origin) at 1 uM incubated for 30 mins by fluorometric analysis
T2 sequence (whole entry): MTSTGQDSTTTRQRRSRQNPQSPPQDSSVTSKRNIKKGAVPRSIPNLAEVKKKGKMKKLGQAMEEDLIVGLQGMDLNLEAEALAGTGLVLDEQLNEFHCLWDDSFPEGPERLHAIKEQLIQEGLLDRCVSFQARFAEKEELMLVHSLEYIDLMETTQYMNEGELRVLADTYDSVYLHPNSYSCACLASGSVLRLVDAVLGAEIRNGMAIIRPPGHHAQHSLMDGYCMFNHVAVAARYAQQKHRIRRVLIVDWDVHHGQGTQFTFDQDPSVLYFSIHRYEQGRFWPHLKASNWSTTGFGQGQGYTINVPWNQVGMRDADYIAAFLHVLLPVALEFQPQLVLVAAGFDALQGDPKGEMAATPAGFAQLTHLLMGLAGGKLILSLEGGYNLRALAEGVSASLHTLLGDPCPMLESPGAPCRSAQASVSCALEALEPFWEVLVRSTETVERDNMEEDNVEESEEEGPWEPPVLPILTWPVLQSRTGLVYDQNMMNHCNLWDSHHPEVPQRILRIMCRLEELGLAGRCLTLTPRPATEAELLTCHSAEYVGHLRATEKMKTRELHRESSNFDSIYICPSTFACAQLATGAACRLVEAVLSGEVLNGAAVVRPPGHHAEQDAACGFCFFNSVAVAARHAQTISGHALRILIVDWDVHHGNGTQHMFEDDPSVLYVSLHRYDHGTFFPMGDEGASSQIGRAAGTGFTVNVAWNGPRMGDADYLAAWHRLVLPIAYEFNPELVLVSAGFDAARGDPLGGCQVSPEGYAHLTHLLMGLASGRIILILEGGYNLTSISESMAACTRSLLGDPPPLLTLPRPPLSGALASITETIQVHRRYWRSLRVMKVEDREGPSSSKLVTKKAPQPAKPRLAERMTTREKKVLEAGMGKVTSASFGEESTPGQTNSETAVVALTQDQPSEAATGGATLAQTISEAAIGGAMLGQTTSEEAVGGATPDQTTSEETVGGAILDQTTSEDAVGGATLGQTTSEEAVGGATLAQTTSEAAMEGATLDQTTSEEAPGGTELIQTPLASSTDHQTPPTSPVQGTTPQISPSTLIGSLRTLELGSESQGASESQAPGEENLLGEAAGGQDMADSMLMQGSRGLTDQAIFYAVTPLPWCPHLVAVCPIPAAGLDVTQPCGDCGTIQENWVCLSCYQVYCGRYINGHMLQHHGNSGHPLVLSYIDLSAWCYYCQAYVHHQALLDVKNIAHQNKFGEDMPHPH

Mus musculus [4] = test: Anti-pulmonary fibrosis activity in bleomycin-induced idiopathic pulmonary fibrosis C57BL/6J mouse model assessed as decrease in lung damage by measuring decrease in inflammatory cell infiltration in lungs at 25 to 50 mg/kg, ig administered daily via gavage and measured on day 14 by Masson's trichrome staining based analysis; type: functional, organism-based; conditions: dose 25-50 mg/kg, time 14.0 day
RPMI-8226 = test: Antiproliferative activity against human RPMI-8226 cells assessed as inhibition of cell growth incubated for 24 to 48 hrs by CCK8 assay; type: functional, cell-based

Chain of Histone deacetylase 2 (Q92769 whole entry): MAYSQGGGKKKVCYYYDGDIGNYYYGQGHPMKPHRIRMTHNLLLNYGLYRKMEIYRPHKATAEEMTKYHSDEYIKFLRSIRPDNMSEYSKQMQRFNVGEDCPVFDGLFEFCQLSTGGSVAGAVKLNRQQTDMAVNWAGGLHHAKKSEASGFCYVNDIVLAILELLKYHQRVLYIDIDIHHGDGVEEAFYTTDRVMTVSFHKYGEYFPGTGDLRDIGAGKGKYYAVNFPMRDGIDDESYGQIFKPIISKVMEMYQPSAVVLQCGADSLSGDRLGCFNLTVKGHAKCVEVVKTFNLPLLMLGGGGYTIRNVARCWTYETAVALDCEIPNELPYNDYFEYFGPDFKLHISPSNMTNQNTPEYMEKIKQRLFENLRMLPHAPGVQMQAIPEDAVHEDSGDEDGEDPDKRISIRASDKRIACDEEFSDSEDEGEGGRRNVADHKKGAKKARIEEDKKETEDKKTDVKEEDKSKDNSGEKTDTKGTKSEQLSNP

IC50 (Histone deacetylase 2): 642 nM | inhibition [3]: 94.8% | IC50 (RPMI-8226): 440 nM
Structure (SMILES): O=C(NO)c1ccc(CN2C(=O)C3=C(CCN(Cc4cccc(Cl)c4)C3)N3CCN=C23)cc1
Activity (Mus musculus [1]): Active; Superior Activity Compared To Positive Drug, Acy-1215 | inhibition [2]: Active; Levels Lower Than The Positive Control, Acy-1215 | Activity (Mus musculus [4]): Active
